Values belong to the compound of their own block, whether it stands above or below them.
Tests used:
[1] = tested on: P. falciparum; test: In vitro antiplasmodial activity, MSF assay, strain not specified or all 3 strains together; format: cell-based, Plasmodium falciparum; details: for reduction of potency relative to ELQ-121: relative to ELQ-121, in vitro testing; for IC50: strain not stated, read-out: IC50 (effect of 3-position side chain length); for in vitro antiplasmodial activity (SAR remark in words): compared within the endochin series
Method: (§1) Plasmodium falciparum strains D6 and Dd2 were obtained from the MR4 (ATCC, Manassas, Va., USA). D6 is sensitive to chloroquine but mildly resistant to mefloquine while Dd2 is resistant to multiple quinoline and antifolate antimalarial agents. Tm90.C2B is resistant to atovaquone, chloroquine, mefloquine, and quinine.
Three different laboratory strains of P. falciparum were cultured in human erythrocytes by standard methods under a low oxygen atmosphere (5% O2, 5% CO2, 90% N2) in an environmental chamber as described in Trager, W., and J. B. Jensen. 1976. Human malaria parasites in continuous culture. Science 193:673-5. The culture medium was RPMI-1640, supplemented with 25 mM HEPES buffer, 25 mg/L gentamicin sulfate, 45 mg/L hypoxanthine, 10 mM glucose, 2 mM glutamine, and 0.5% Albumax II (complete medium). The parasites were maintained in fresh human erythrocytes suspended at a 2% hematocrit in complete medium at 37° C. Stock cultures were sub-passaged every 3 to 4 days by transfer of infected red cells to a flask containing complete medium and uninfected erythrocytes.
In vitro antimalarial activity of the compounds was assessed by the SYBR Green I fluorescence-based method (the “MSF assay”) described previously by Smilkstein, M., N. Sriwilaijaroen, J. X. Kelly, P. Wilairat, and M. Riscoe. 2004. Simple and inexpensive fluorescence-based technique for high-throughput antimalarial drug screening. Antimicrob Agents Chemother 48:1803-6 with minor modifications (Winter, R. W., J. X. Kelly, M. J. Smilkstein, R. Dodean, G. C. Bagby, R. K. Rathbun, J. I. Levin, D. Hinrichs, and M. K. Riscoe. 2006. Evaluation and lead optimization of anti-malarial acridones. Exp Parasitol 114:47-56). Experiments were set up in triplicate in 96 well plates (Costar, Corning) with two-fold dilutions of each drug across the plate in a total volume of 100 microliters and at a final red blood cell concentration of 2% (v/v). Stock solutions of each drug were prepared by dissolving in ethanol or dimethylsulfoxide (as appropriate) at 10 mM. […] Automated pipeting and dilution was carried out with the aid of a programmable Precision 2000 robotic station (BioTek, Winooski, Vt.). An initial parasitemia of 0.2% was attained by addition of normal uninfected red cells to a stock culture of asynchronous parasite infected red cells (PRBC). The plates were incubated for 72 hrs at 37° C. in an atmosphere of 5% CO2, 5% O2, and 90% N2. After this period the SYBR Green I dye-detergent mixture (100 μl) was added and the plates were incubated at room temperature for an hour in the dark and then placed in a 96-well fluorescence plate reader (Spectramax Gemini-EM, […]) for analysis with excitation and emission wavelength bands centered at 497 and 520 nm, respectively. The fluorescence readings were plotted against the logarithm of the drug concentration and curve fitting by nonlinear regression analysis (GraphPad Prism software) yielded the drug concentration that produced 50% of the observed decline relative to the maximum readings in drug-free control wells (IC50).
The compounds were screened for antiplasmodial activity in vitro against chloroquine (CQ) sensitive (D6), multidrug resistant (Dd2), and chloroquine/quinine/atovaquone (ATV)-resistant (Tm90.C2B) strains of P. falciparum. […] The following observations on the structure-activity relationships (SAR) can be made: • 1. It may be observed that the length of the 3-position side chain influences the antiplasmodial effect.

[2] = tested on: Plasmodium falciparum strain Tm90.C2B (chloroquine/quinine/atovaquone-resistant); test: In vitro antimalarial activity, MSF assay, strain Tm90.C2B; format: cell-based; details: Tm90.C2B compared with the other strains
Method: as §1
(§2) Three different laboratory strains of P. falciparum were cultured in human erythrocytes by standard methods under a low oxygen atmosphere (5% O2, 5% CO2, 90% N2) in an environmental chamber as described in Trager, W., and J. B. Jensen. 1976. Human malaria parasites in continuous culture. Science 193:673-5. […]
(§3) In vitro antimalarial activity of the compounds was assessed by the SYBR Green I fluorescence-based method (the “MSF assay”) described previously by Smilkstein, M., N. Sriwilaijaroen, J. X. Kelly, P. Wilairat, and M. Riscoe. […] Simple and inexpensive fluorescence-based technique for high-throughput antimalarial drug screening. […] After this period the SYBR Green I dye-detergent mixture (100 μl) was added and the plates were incubated at room temperature for an hour in the dark and then placed in a 96-well fluorescence plate reader (Spectramax Gemini-EM, […]) for analysis with excitation and emission wavelength bands centered at 497 and 520 nm, respectively. […]

[3] = tested on: Plasmodium falciparum strain D6 (chloroquine sensitive); test: In vitro antimalarial activity, SYBR Green I fluorescence-based method (MSF assay), strain D6; format: cell-based; details: P. falciparum D6, 72 hrs
Method: as §1, §2, §3

[4] = tested on: P. yoelii; test: In vivo efficacy in a murine malaria model of patent infection with P. yoelii (modified Thompson procedure)
Method: The activity of the ester, ELQ-125, against the blood stages was assessed using a modified Thompson procedure (Arba Ager, 1984). Rodent malaria models, vol. 68/1. Springer-Verlag, Berlin. Mice (female, CF1) were infected intravenously with 1-5 million P. yoelii parasitized erythrocytes from a donor animal. […] The drug was administered by gavage once daily for 3 days. On the 4th day blood films were prepared and the extent of parasitemia was determined microscopically. ED50 and ED90 values (mg/kg/day) were derived from the dose required to reduce the parasite burden by 50% and 90%, respectively, relative to drug-free controls. The procedures involved, together with all matters relating to the care and housing of the animals used in this study, were approved by the Portland VA Medical Center Institutional Animal Care and Use Committee (approval #0807).
Prodrugs containing a water-soluble pro-moiety that could be metabolically released after drug administration were designed and synthesized.

[5] = Water solubility and vehicle miscibility of the prodrug; format: physicochemical; details: prodrug compared with ELQ-121
[6] = tested on: Toxoplasma gondii strain 2F; test: Anti-T. gondii activity, 2F strain beta-galactosidase assay in HFF cells; format: cell-based; details: compared with the correlation seen for P. falciparum
Method: Determination of anti-T. gondii IC50 and TD50 values—use of the 2F strain. This method, which employs tachyzoites of Toxoplasma gondii strain 2F that constitutively expresses cytoplasmic Beta-galactosidase, has been described recently by Jones-Brando et al. (Jones-Brando, L., D'angelo, J., Posner, G H, and Yolken, R., 2006, In vitro inhibition of Toxoplasma gondii by four new derivatives of artemisinin, Antimicrobial Agents and Chemotherapy 50: 4206-8). […] Briefly, each drug was dissolved in ethanol or DMSO, as appropriate, at a concentration of 10 mM and diluted with complete Dulbecco's modified Eagle's medium (DMEM) to 1,000 μM. […] After this period, Triton X-100 is added to inactivate the parasite and the color reactions in the wells were read in a microplate reader. For anti-T. gondii IC50 determinations, the plates are read at 570-650 nm. The amount of absorbance (570-650 nm) in wells containing drug, parasites, and CPRG reagent is compared to that in control wells containing T. gondii, HFF cells and CPRG. The amount of absorbance in these wells is directly proportional to the amount of beta-galactosidase activity and thus correlative to the number of viable tachyzoites in each well. Thus, a decrease in the amount of absorbance indicates an inhibition of parasite growth. […]

[7] = mice, gavage once daily for 3 days in 100 μl NeoBee M5

Compound: CCCCCCCc1c(C)[nH]c2c(F)cc(F)cc2c1=O [6,8-difluoro positional isomer]
reduction of potency relative to ELQ-121 [1]: ≈ 2,000 fold

IC50 [1]: ~3 nM
Compound: CCCCCCCc1c(C)[nH]c2cc(OC)ccc2c1=O [ELQ-100, endochin, reference compound]
cross-resistance / sensitivity of atovaquone-resistant Tm90.C2B (in words) [2]: modest level of ATV cross-resistance

Compound: COc1ccc2c(=O)c(CCCCCCCCCCC(F)(F)F)c(C)[nH]c2c1 [ELQ-103]
IC50 values for all 3 tested strains (in words) ([1]; D6, Dd2 and Tm90.C2B): low nanomolar range

Compound: CCCCCCCc1c(O)[nH]c2cc(OC)ccc2c1=O [ELQ-106]
IC50 [3]: > 2500 nM

Compound: CCCCCCCc1c(C)[nH]c2cc(Cl)ccc2c1=O [ELQ-109]
in vitro antiplasmodial activity (SAR remark in words) [1]: only a modest reduction in in vitro potency

IC50 [1]: ~30 nM
Compound: CCCCc1c(C)[nH]c2cc(OC)ccc2c1=O [ELQ-115]

Compound: CCCCCCCc1c(C)[nH]c2cc(O)ccc2c1=O [ELQ-117]
in vitro antiplasmodial activity (SAR remark in words) [1]: greatly diminishes antiplasmodial activity

Compound: CCCCCCCc1c(C)nc2cc(F)cc(F)c2c1Cl [ELQ-119]
reduction of potency relative to ELQ-121 [1]: > 1,000 fold

Compound: CCCCCCCc1c(C)[nH]c2cc(F)ccc2c1=O [ELQ-120]
in vitro antiplasmodial activity (SAR remark in words) [1]: only a modest reduction in in vitro potency

Compound: CCCCCCCc1c(C)[nH]c2cc(F)cc(F)c2c1=O [ELQ-121, 2-Methyl-3-(n-heptyl)-5.7-difluorquinolone]
in vitro antiplasmodial activity (SAR remark in words) [1]: one of the most potent compounds in the tested series

Compound: CCCCCCCc1c(C)[nH]c2cc(Cl)cc(Cl)c2c1=O [ELQ-124]
in vitro antiplasmodial activity (SAR remark in words) [1]: weak in vitro activity

Compound: CCCCCCCc1c(C)nc2cc(F)cc(F)c2c1OC(=O)OCCOCCOCCOCCOC [ELQ-125]
parasite status on follow-up ([4]; 25 mg/kg/day oral, 3 days, followed until euthanized 10 days later): remained parasite-free
ED50 [4, 7]: 11 mg/kg/day
ED90 [4, 7]: 22 mg/kg/day
in vivo efficacy (in words) ([4]; prodrug compared with ELQ-121): greatly enhanced in vivo efficacy
water solubility [5]: improved water solubility

Compound: CCCCCCCc1c(C)[nH]c2ccccc2c1=O [ELQ-127]
in vitro antiplasmodial activity (SAR remark in words) [1]: equally active against all three parasite strains
weakening of in vitro activity relative to endochin ([1]; relative to endochin): roughly 5 fold

Compound: CCCCCCCc1c(C)[nH]c2ccc(Cl)cc2c1=O [ELQ-130]
in vitro antiplasmodial activity (SAR remark in words) [1]: modest reduction in antimalarial response
cross-resistance / sensitivity of atovaquone-resistant Tm90.C2B (in words) [2]: equal sensitivity

Compound: CCCCCCCc1c(C)n(C)c2cc(F)cc(F)c2c1=O [ELQ-134]
reduction of potency relative to ELQ-121 [1]: about 300 fold
growth inhibitory activity against Toxoplasma gondii (in words) [6]: enhanced growth inhibitory activity
